Results: patent EP4806900A2, “RAS INHIBITORS” (Revolution Medicines, Inc., priority 2019, dated 2021)

Tested on: NCI-H358 (K-Ras G12C)
Assay: CellTiter-Glo cell viability assay, NCI-H358
Assay type: cell-based, human
Conditions: Table 5; read-out: H358 Cell Viability assay data (K-Ras G12C, IC50)
Protocol: Note - The following protocol describes a procedure for monitoring cell viability of K-Ras mutant cancer cell lines in response to a compound of the invention. Other RAS isoforms may be employed, though the number of cells to be seeded will vary based on cell line used.
Test compounds (132.5 nL) were directly dispensed into the assay plates containing cells. […] On day 5, assay plates and their contents were equilibrated to room temperature for approximately 30 minutes. […] Luminescence was measured using the PerkinElmer Enspire. Data were normalized by the following: (Sample signal/Avg. DMSO)*100. The data were fit using a four-parameter logistic fit.

SMILES | IC50
C=CC(=O)N1CC[C@H](C(=O)N(C)[C@H](C(=O)N[C@H]2Cc3cc(N)cc(c3)-c3ccc4c(c3)c(c(-c3ccccc3CCOC)n4CC)CC(C)(C)COC(=O)[C@@H]3CCCN(N3)C2=O)C(C)C)C1 [Compound A2, (2S)-N-[(8S,14S)-4-amino-22-ethyl-21-[2-(2-methoxyethyl)phenyl]-18,18-dimethyl-9,15-dioxo-16-oxa-10,22,28-triazapentacyclo[18.5.2.1^2,6.1^10,^14.0^23,^27]nonacosa-1(26),2,4,6(29),20,23(27),24-heptaen-8-yl]-3-methyl-2-{N-methyl-1-[(3S)-1-(prop-2-enoyl)pyrrolidin-3-yl]formamido}butanamide] | > 1000 nM
C=CC(=O)N1CC[C@H](C(=O)N(C)[C@H](C(=O)N[C@H]2Cc3cc(OC(=O)CCN4CCN(C)CC4)cc(c3)-c3ccc4c(c3)c(c(-c3ccccc3CCOC)n4CC)CC(C)(C)COC(=O)[C@@H]3CCCN(N3)C2=O)C(C)C)C1 [Compound A7] | 100 to 1000 nM
C=CC(=O)N1CC[C@H](C(=O)N(C)[C@H](C(=O)N[C@H]2Cc3cc(OC(=O)CN)cc(c3)-c3ccc4c(c3)c(c(-c3ccccc3CCOC)n4CC)CC(C)(C)COC(=O)[C@@H]3CCCN(N3)C2=O)C(C)C)C1 [Compound A8] | 100 to 1000 nM
C=CC(=O)N1CC[C@H](C(=O)N(C)[C@H](C(=O)N[C@H]2Cc3cc(cc(O)c3F)-c3ccc4c(c3)c(c(-c3ccccc3CCOC)n4CC)CC(C)(C)COC(=O)[C@@H]3CCCN(N3)C2=O)C(C)C)C1 [Compound A9] | 100 to 1000 nM
C=CC(=O)N1CCC(F)(C(=O)N(C)[C@H](C(=O)N[C@H]2Cc3cc(O)cc(c3)-c3ccc4c(c3)c(c(-c3ccccc3CCOC)n4CC)CC(C)(C)COC(=O)[C@@H]3CCCN(N3)C2=O)C(C)C)CC1 [Compound A11] | 100 to 1000 nM
C=CC(=O)N1CCCN(C(=O)N(C)[C@H](C(=O)N[C@H]2Cc3cc(O)cc(c3)-c3ccc4c(c3)c(c(-c3ccccc3CCOC)n4CC)CC(C)(C)COC(=O)[C@@H]3CCCN(N3)C2=O)C(C)C)CC1 [Compound A13] | 100 to 1000 nM
C=CC(=O)N1CCC(C(=O)N(C)[C@H](C(=O)N[C@H]2Cc3cc(O)cc(c3)-c3ccc4c(c3)c(c(-c3ccccc3CCOC)n4CC)CC(C)(C)COC(=O)[C@@H]3CCCN(N3)C2=O)C(C)C)CC1 [Compound A14] | 100 to 1000 nM
C=CC(=O)N1CC[C@H](C(=O)N(C)[C@H](C(=O)N[C@H]2Cc3cc(O)cc(c3)-c3ccc4c(c3)c(c(-c3ccccc3OC)n4CC)CC(C)(C)COC(=O)[C@@H]3CCCN(N3)C2=O)C(C)C)C1 [Compound A17] | 100 to 1000 nM
C=CC(=O)N1CCN(C(=O)N(C)[C@H](C(=O)N[C@H]2Cc3cc(O)cc(c3)-c3ccc4c(c3)c(c(-c3ccccc3CCOC)n4CC)CC(C)(C)COC(=O)[C@@H]3CCCN(N3)C2=O)C(C)C)CC1 [Compound A18] | 100 to 1000 nM
CCn1c(-c2ccccc2CCOC)c2c3cc(ccc31)-c1cc(O)cc(c1)C[C@H](NC(=O)[C@H](C(C)C)N(C)C(=O)C1CCN(C(=O)/C=C/CN(C)C)CC1)C(=O)N1CCC[C@H](N1)C(=O)OCC(C)(C)C2 [Compound A19] | 100 to 1000 nM
C=CC(=O)N1CC[C@H](C(=O)N(C)[C@H](C(=O)N[C@H]2Cc3cc(O)cc(c3)-c3ccc4c(c3)c(c(-c3ccc(CC(=O)O)cc3)n4CC)CC(C)(C)COC(=O)[C@@H]3CCCN(N3)C2=O)C(C)C)C1 [Compound A21] | > 1000 nM
C=CC(=O)N1CC[C@H](C(=O)N(C)[C@H](C(=O)N[C@H]2Cc3cc(O)cc(c3)-c3ccc4c(c3)c(c(-c3ccccc3)n4CC)CC(C)(C)COC(=O)[C@@H]3CCCN(N3)C2=O)C(C)C)C1 [Compound A23] | 100 to 1000 nM
C=CC(=O)N1CC[C@H](C(=O)N(C)[C@H](C(=O)N[C@H]2Cc3cccc(c3)-c3ccc4c(c3)c(c(-c3ccccc3CCOC)n4CC)CC(C)(C)COC(=O)[C@@H]3CCCN(N3)C2=O)C(C)C)C1 [Compound A24] | > 1000 nM
C=CC(=O)N1CC[C@H](C(=O)N(C)[C@H](C(=O)N[C@H]2Cc3cc(O)cc(c3)-c3ccc4c(c3)c(c(-c3c(F)cccc3CCOC)n4CC)CC(C)(C)COC(=O)[C@@H]3CCCN(N3)C2=O)C(C)C)C1 [Compound A25] | 100 to 1000 nM
C=CC(=O)N1CC[C@H](C(=O)N(C)[C@H](C(=O)N[C@H]2Cc3cc(O)cc(c3)-c3ccc4c(c3)c(c(-c3ccccc3N3CCOCC3)n4CC)CC(C)(C)COC(=O)[C@@H]3CCCN(N3)C2=O)C(C)C)C1 [Compound A26] | 100 to 1000 nM
C=CC(=O)N1CC[C@H](C(=O)N(C)[C@H](C(=O)N[C@H]2Cc3cc(O)cc(c3)-c3ccc4c(c3)c(c(-c3ccccc3[C@@H](C)OC)n4CC)CC(C)(C)COC(=O)[C@@H]3CCCN(N3)C2=O)C(C)C)C1 [Compound A29] | 100 to 1000 nM
C=CC(=O)N1CCC(C(=O)N(C)[C@H](C(=O)N[C@H]2Cc3cc(O)cc(c3)-c3ccc4c(c3)c(c(-c3ccccc3CN(C)C)n4CC)CC(C)(C)COC(=O)[C@@H]3CCCN(N3)C2=O)C(C)C)CC1 [Compound A33] | 100 to 1000 nM
CCn1c(-c2ccccc2CCOC)c2c3cc(ccc31)-c1cc(O)cc(c1)C[C@H](NC(=O)[C@H](C(C)C)N(C)C(=O)[C@H]1CCN(C(=O)C#CCN(C)C)C1)C(=O)N1CCC[C@H](N1)C(=O)OCC(C)(C)C2 [Compound A38] | < 10 nM
C=CC(=O)N1CC[C@H](C(=O)N(C)[C@H](C(=O)N[C@H]2Cc3cc(O)cc(c3)-c3ccc4c(c3)c(c(-c3ccc(C5CCN(C)CC5)cc3)n4CC)CC(C)(C)COC(=O)[C@@H]3CCCN(N3)C2=O)C(C)C)C1 [Compound A39] | 10 to 100 nM
C=CC(=O)N1CC[C@H](C(=O)N(C)[C@H](C(=O)N[C@H]2Cc3cc(O)cc(c3)-c3ccc4c(c3)c(c(-c3ccc5c(c3)CCN(C)C5)n4CC)CC(C)(C)COC(=O)[C@@H]3CCCN(N3)C2=O)C(C)C)C1 [Compound A40] | 10 to 100 nM
C=CC(=O)N1CC[C@H](C(=O)N(C)[C@H](C(=O)N[C@H]2Cc3cc(N)cc(c3)-c3ccc4c(c3)c(c(-c3ccccc3COC)n4CC)CC(C)(C)COC(=O)[C@@H]3CCCN(N3)C2=O)C(C)C)C1 [Compound A42] | 100 to 1000 nM
C=CC(=O)N1CC[C@H](C(=O)N(C)[C@H](C(=O)N[C@H]2Cc3cc(O)cc(c3)-c3ccc4c(c3)c(c(-c3cccnc3COCC)n4CC)CC(C)(C)COC(=O)[C@@H]3CCCN(N3)C2=O)C(C)C)C1 [Compound A44] | 10 to 100 nM
C=CC(=O)N1CC[C@H](C(=O)N(C)[C@H](C(=O)N[C@H]2Cc3cc(O)cc(c3)-c3ccc4c(c3)c(c(-c3cccnc3)n4CC)CC(C)(C)COC(=O)[C@@H]3CCCN(N3)C2=O)C(C)C)C1 [Compound A45] | 10 to 100 nM

Further lines, results first:

IC50 | SMILES
100 to 1000 nM | C=CC(=O)N1CC[C@H](C(=O)N(C)[C@H](C(=O)N[C@H]2Cc3cc(O)cc(c3)-c3ccc4c(c3)c(c(-c3ccc(CN(C)C)cc3)n4CC)CC(C)(C)COC(=O)[C@@H]3CCCN(N3)C2=O)C(C)C)C1 [Compound A3]
10 to 100 nM | C=CC(=O)N1CC[C@H](C(=O)N(C)[C@H](C(=O)N[C@H]2Cc3cc(O)cc(c3)-c3ccc4c(c3)c(c(-c3ccccc3CN(C)C)n4CC)CC(C)(C)COC(=O)[C@@H]3CCCN(N3)C2=O)C(C)C)C1 [Compound A5]
100 to 1000 nM | C=CC(=O)N1CC[C@H](C(=O)N(C)[C@H](C(=O)N[C@H]2Cc3cc(O)cc(c3)-c3ccc4c(c3)c(c(-c3ccccc3CCOC)n4CC)CC(C)(C)COC(=O)[C@@H]3CCCN(N3)C2=O)C2CCOCC2)C1 [Compound A6]
10 to 100 nM | C=CC(=O)N1CC[C@H](C(=O)N(C)[C@H](C(=O)N[C@H]2Cc3cc(O)cc(c3)-c3ccc4c(c3)c(c(-c3cccnc3COC)n4CC)CC(C)(C)COC(=O)[C@@H]3CCCN(N3)C2=O)C(C)C)C1 [Compound A16]
10 to 100 nM | C=CC(=O)N1CCC(F)(C(=O)N(C)[C@H](C(=O)N[C@H]2Cc3cc(O)cc(c3)-c3ccc4c(c3)c(c(-c3ccccc3CN(C)C)n4CC)CC(C)(C)COC(=O)[C@@H]3CCCN(N3)C2=O)C(C)C)CC1 [Compound A20]
10 to 100 nM | C=CC(=O)N1CC[C@H](C(=O)N(C)[C@H](C(=O)N[C@H]2Cc3cc(O)cc(c3)-c3ccc4c(c3)c(c(-c3ccccc3[C@H](C)OC)n4CC)CC(C)(C)COC(=O)[C@@H]3CCCN(N3)C2=O)C(C)C)C1 [Compound A22]
10 to 100 nM | C=CC(=O)N1CC[C@H](C(=O)N(C)[C@H](C(=O)N[C@H]2Cc3cc(O)cc(c3)-c3ccc4c(c3)c(c(-c3ccccc3COC)n4CC)CC(C)(C)COC(=O)[C@@H]3CCCN(N3)C2=O)C2CCCC2)C1 [Compound A27]
10 to 100 nM | C=CC(=O)N1CC[C@H](C(=O)N(C)[C@H](C(=O)N[C@H]2Cc3cc(O)cc(c3)-c3ccc4c(c3)c(c(-c3cccc(CN(C)C)c3)n4CC)CC(C)(C)COC(=O)[C@@H]3CCCN(N3)C2=O)C(C)C)C1 [Compound A30]
10 to 100 nM | C=CC(=O)N1CC2(CCN([C@H](C(=O)N[C@H]3Cc4cc(O)cc(c4)-c4ccc5c(c4)c(c(-c4ccccc4CCOC)n5CC)CC(C)(C)COC(=O)[C@@H]4CCCN(N4)C3=O)C(C)C)C2=O)C1 [Compound A31]
10 to 100 nM | C=CC(=O)N1CC[C@H](C(=O)N(C)[C@H](C(=O)N[C@H]2Cc3cc(O)cc(c3)-c3ccc4c(c3)c(c(-c3ccccc3CCOC)n4C(C)(C)C#N)CC(C)(C)COC(=O)[C@@H]3CCCN(N3)C2=O)C(C)C)C1 [Compound A34]
10 to 100 nM | C=CC(=O)N1CC[C@H](C(=O)N(C)[C@H](C(=O)N[C@H]2Cc3cc(O)cc(c3)-c3ccc4c(c3)c(c(-c3ccc5cc(CN(C)C)n(C)c5c3)n4CC)CC(C)(C)COC(=O)[C@@H]3CCCN(N3)C2=O)C(C)C)C1 [Compound A35]
10 to 100 nM | C=CC(=O)N1C[C@H](C)[C@H](C(=O)N(C)[C@H](C(=O)N[C@H]2Cc3cc(O)cc(c3)-c3ccc4c(c3)c(c(-c3ccccc3CCOC)n4CC)CC(C)(C)COC(=O)[C@@H]3CCCN(N3)C2=O)C(C)C)C1 [Compound A41]
10 to 100 nM | C=CC(=O)N1C[C@H](C)[C@H](C(=O)N(C)[C@H](C(=O)N[C@H]2Cc3cc(O)cc(c3)-c3ccc4c(c3)c(c(-c3ccccc3CN(C)C)n4CC)CC(C)(C)COC(=O)[C@@H]3CCCN(N3)C2=O)C2CCCC2)C1 [Compound A43]
